According to patent US20080292760A1, “Semi-Solid Food Products and Methods For Their Production, Based on Inhibiting Amylase Starch Breakdown” (WAGENINGEN CENTRE FOR FOOD SCIENCES, priority 2004, published 2008):

Biological target: T1, salivary amylase (Homo sapiens, UniProt P0DUB6)
T1 construct: from tissue; host or cells: saliva in the mouths of the human panelists (in vivo)
T1 sequence (P0DUB6 16-511): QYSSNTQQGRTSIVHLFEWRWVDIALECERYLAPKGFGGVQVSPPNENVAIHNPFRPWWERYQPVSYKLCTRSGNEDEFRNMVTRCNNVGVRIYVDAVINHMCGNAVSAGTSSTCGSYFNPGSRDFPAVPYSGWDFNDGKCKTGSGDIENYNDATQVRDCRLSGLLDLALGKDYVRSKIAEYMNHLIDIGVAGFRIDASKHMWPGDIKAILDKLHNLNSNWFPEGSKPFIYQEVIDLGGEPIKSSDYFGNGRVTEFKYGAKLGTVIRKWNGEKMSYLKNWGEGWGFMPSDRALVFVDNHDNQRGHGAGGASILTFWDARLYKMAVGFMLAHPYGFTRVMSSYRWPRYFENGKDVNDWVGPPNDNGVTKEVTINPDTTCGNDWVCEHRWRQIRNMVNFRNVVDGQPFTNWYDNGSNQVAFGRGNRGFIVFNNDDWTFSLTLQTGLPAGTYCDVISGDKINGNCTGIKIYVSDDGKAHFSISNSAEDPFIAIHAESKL
Assay: acarbose study: sensory rating of vanilla custard desserts with added acarbose
Assay type: in vivo
Conditions: Creamex custard
Procedure: The role of salivary amylase in modifying texture sensations was evaluated in the following examples, in which the level of amylase activity was varied within subjects, rather than between subjects. Alpha-amylase was added in varying concentrations to starch and CMC (non-starch)-based vanilla custard desserts. Additionally, amylase activity was inhibited to various degrees by adding the pharmaceutical amylase inhibitor Acarbose (CAS nr. 56180-94-0) in various concentrations to the same test foods.
Eighteen subjects, 11 females and 7 males aged between 18 and 34 yrs, participated the ‘amylase study’ and 7 different subjects, all females aged between 39 and 56 yrs, participated in the ‘acarbose study’. The subjects participating in the latter study had been informed about acarbose and its possibly side effects if swallowed. To avoid these side effects, subjects expectorated rather than swallowed the acarbose samples. All subjects signed consent forms expressing their willingness to participate in the studies, and all had previously been screened for olfactory and taste disorders and had received extensive training in the description of sensory mouthfeel and afterfeel attributes for semi-solid foods. Testing took place at the sensory facilities of TNO-Nutrition and Food Research in Zeist, The Netherlands. […]

C[C@H]1O[C@H](O[C@H]2[C@H](O)[C@@H](O)[C@@H](O[C@H]3[C@H](O)[C@@H](O)C(O)O[C@@H]3CO)O[C@@H]2CO)[C@H](O)[C@@H](O)[C@@H]1N[C@H]1C=C(CO)[C@@H](O)[C@H](O)[C@H]1O (stereo partly shown) [Acarbose]
increase of creamy mouthfeel: up to 59%
